Test results taken from the CheMixHub viscosity set.

Experiment: xn = mol fraction of the nth substance listed

CCCCCCC + CCCO
viscosity [mPa·s]
Settings | 293.15 K | 298.15 K
100 kPa, x1 = 0.0569 | – | 1.654
100 kPa, x1 = 0.1025 | – | 1.453
100 kPa, x1 = 0.1996 | – | 1.138
100 kPa, x1 = 0.3052 | – | 0.9066
100 kPa, x1 = 0.4045 | – | 0.75
100 kPa, x1 = 0.5038 | – | 0.6265
100 kPa, x1 = 0.6039 | – | 0.5366
100 kPa, x1 = 0.7066 | – | 0.4713
100 kPa, x1 = 0.8001 | – | 0.4307
100 kPa, x1 = 0.8488 | – | 0.4168
100 kPa, x1 = 0.9551 | – | 0.4008
100 kPa, x2 = 0.1648 | – | 0.4406
100 kPa, x2 = 0.3402 | – | 0.5464
100 kPa, x2 = 0.5002 | – | 0.7014
100 kPa, x2 = 0.6602 | – | 0.9498
100 kPa, x2 = 0.8383 | – | 1.294
101 kPa, x1 = 0.0164 | – | 1.804
101 kPa, x1 = 0.102 | 1.641 | 1.477
101 kPa, x1 = 0.2018 | 1.291 | 1.166
101 kPa, x1 = 0.299 | 1.052 | 0.9499
101 kPa, x1 = 0.4005 | 0.8426 | 0.7687
101 kPa, x1 = 0.5017 | 0.6995 | 0.6453
101 kPa, x1 = 0.6033 | 0.5899 | 0.5511
101 kPa, x1 = 0.7025 | 0.5126 | 0.4886
101 kPa, x1 = 0.801 | 0.4793 | 0.4419
101 kPa, x1 = 0.8918 | 0.4475 | 0.4174
101 kPa, x2 = 0.0584 | – | 0.39
101 kPa, x2 = 0.1192 | – | 0.408
101 kPa, x2 = 0.1482 | – | 0.416
101 kPa, x2 = 0.2647 | – | 0.454
101 kPa, x2 = 0.3436 | – | 0.489
101 kPa, x2 = 0.4121 | – | 0.53
101 kPa, x2 = 0.5026 | – | 0.606
101 kPa, x2 = 0.5659 | – | 0.679
101 kPa, x2 = 0.654 | – | 0.811
101 kPa, x2 = 0.6877 | – | 0.872
101 kPa, x2 = 0.7447 | – | 0.994
101 kPa, x2 = 0.8298 | – | 1.222
101.33 kPa, x1 = 0.0127 | – | 1.873
101.33 kPa, x2 = 0.0468 | – | 0.393
101.33 kPa, x2 = 0.0919 | – | 0.409
101.33 kPa, x2 = 0.0989 | – | 0.403
101.33 kPa, x2 = 0.2079 | – | 0.4331
101.33 kPa, x2 = 0.2269 | – | 0.46
101.33 kPa, x2 = 0.2621 | – | 0.454
101.33 kPa, x2 = 0.34 | – | 0.52
101.33 kPa, x2 = 0.362 | – | 0.4992
101.33 kPa, x2 = 0.4038 | – | 0.571
101.33 kPa, x2 = 0.4569 | – | 0.576
101.33 kPa, x2 = 0.521 | – | 0.682
101.33 kPa, x2 = 0.5667 | – | 0.69
101.33 kPa, x2 = 0.598 | – | 0.776
101.33 kPa, x2 = 0.6616 | – | 0.876
101.33 kPa, x2 = 0.6636 | – | 0.832
